Tests used:
[1] = test system: BTSC#30p; experiment: Light microscopy of morphology / differentiation, BTSC#30p; type: cell-based; conditions: 100 µM and 200 µM, 6 days
[2] = test system: human epidermoid carcinoma cell line, A431; experiment: Cytotoxicity / cell viability assay (ATPlite); type: cell-based; conditions: human A-431 cells, 48 h
Procedure: (§1) In this study, we also developed a LANCE time-resolved fluorescence energy transfer (TR-FRET) assay as a secondary assay for our screening. The His-tagged HMGA2 and biotinylated oligomer FL814 were linked to Europium-labeled anti-6 × His antibody and APC-labeled streptavidin, respectively. A series of DNA binding studies were performed to determine the optimal conditions for the secondary Assay (Fig. S2). After these experiments, 12.5 nM of FL814 and 62.5 nM of HMGA2 were chosen for the assay, which is the same for the primary assay. The assay tolerated up to 0.25% DMSO without any significant change in signal (Fig. S2c). For a counterscreen assay to exclude those compounds that nonspecifically bind to the protein surface, an AlphaScreen assay of H4 peptide binding to bromodomain-containing protein 4 (BRD4) was adopted (Fig. S2e). Since we are looking for compounds with anti-metastasis or anti-obesity activities, compounds with high levels of cytotoxicity are undesirable. […]
A-431 cells were grown in media (DMEM + 10% FBS + 1 × Penicillin/Streptomycin + 2 mM L-glutamine) at 37 °C in a humidified incubator with 5% CO2 to 70% confluency. […] After 10 min the plates were read using a Perkin Elmer Viewlux multimode plate reader in luminescence mode.

[3] = no reference given; cited from earlier work
[4] = test system: BTSC#83; experiment: Growth curves (CellTiter), BTSC#83; type: cell-based; conditions: up to 200 μM
Procedure: (§2) BTSC#83 and BTSC#30p and their culture conditions have been described. For growth curves, suspension cultures were mechanically disaggregated and filtered through 37 µm filters (StemCell Technologies, Vancouver, Canada) in order to obtain bona fide single-cell suspension. […] Cell growth was assayed at the indicated time using the CellTiter Assay System (Promega). The growth conditions of 8505c anaplastic thyroid carcinoma cells and mouse Embryonic Fibroblasts (MEFs) knock-out for HMGA1, HMGA2, and HMGA1/A2 double mutant have been described previously[42],[64]. P values were calculated by using two-way ANOVA followed by Sidak’s multiple comparison test.

[5] = test system: BTSC#30p; experiment: Western blotting and qRT-PCR expression analysis, BTSC#30p; type: cell-based
Procedure: The single-cell suspension was obtained by mechanical disaggregation of the spheres and total proteins were extracted 48 h later, as previously described. After separation by SDS–polyacrylamide gel electrophoresis, proteins were blotted on nitrocellulose membranes (GE Healthcare Europe Gmb) and hybridized with the following antibodies: anti-HMGA1, anti-HMGA2 (Genetex) or affinity-purified anti-HMGA2, anti-α-actin (SantaCruz Biotechnologies). The single-cell suspension was obtained by mechanical disaggregation of the spheres and RNA was extracted 48 h later, by using Direct-zol RNA MiniPrep (Zymo Research). One μg of RNA was retrotranscribed, by using QuantiTect® Reverse Transcription Kit (Qiagen) and qRT-PCR was performed as described. The 2^–ΔΔCt formula was used to calculate the differential gene expression.

[6] = test system: BTSC#30p; experiment: Growth curves (CellTiter), BTSC#30p; type: cell-based; conditions: up to 200 μM
Procedure: as §2

[7] = molecular target: T1, bromodomain-containing protein 4 (BRD4) (Homo sapiens, UniProt O60885); experiment: BRD4 AlphaScreen counterscreen assay (H4 peptide binding to BRD4); conditions: counter screen, Fig. 3c
T1 construct: His-tagged BRD4-BD1 was purchased from BPS Bioscience (#31042); purchased BPS Bioscience 31042
Procedure: as §1
Using a Labcyte Echo 555 acoustic dispenser 5 nL of DMSO were added to columns 1–4 and 45–48 of a white 1536 well plate, while 5 nL of 2 mM compounds in DMSO were added to columns 5–44. […] After an overnight incubation at room temperature the plates were read on a Perkin Elmer Envision multimode plate reader in AlphaScreen mode.

[8] = test system: BTSC#83; experiment: Light microscopy of morphology / differentiation, BTSC#83; type: cell-based; conditions: 100 µM and 200 µM, 6 days

## Cc1ccc(C(=O)Nc2ccc(S(=O)(=O)O)c3cc(S(=O)(=O)O)cc(S(=O)(=O)O)c23)cc1NC(=O)c1cccc(NC(=O)Nc2cccc(C(=O)Nc3cc(C(=O)Nc4ccc(S(=O)(=O)O)c5cc(S(=O)(=O)O)cc(S(=O)(=O)O)c45)ccc3C)c2)c1 [suramin]
[1]
  cell morphology / induction of differentiation: acquire flat epithelial morphology
[2]
  cytotoxicity: not cytotoxic
[3]
  oral bioavailability: not orally bioavailable
[4]
  cell growth: did not significantly affect the cell growth
[5]; 100 μM for 48 h
  ID2 expression: induces reduction in ID2 expression
[5]; Western blotting and qRT-PCR
  expression of HMGA1: slightly reduced
  expression of HMGA2: slightly reduced
[5]; qRT-PCR, 100 µM for 48 h
  expression of SNAIL: significantly reduced
[5]; qRT-PCR, 100 µM for 9 days
  expression of ID2: significantly reduced
  expression of MSI1: significantly reduced
  expression of OLIG2: increased
[6]
  cell growth: did not significantly affect the cell growth
[7]
  inhibition of H4 peptide binding to BRD4: did not inhibit H4 peptide binding to BRD4
[8]
  cell morphology / induction of differentiation: adhere to the bottom of the well and extend neurite-like structures

Reference: paper PMC7606612, “Identification of HMGA2 inhibitors by AlphaScreen-based ultra-high-throughput screening assays” (Scientific Reports, 2020)
